Paper PMC12473689, “Drug Metabolism and Pharmacokinetics of Oxazolo[4,5-c]quinoline Analogs as Novel Interleukin-33 Inhibitors” (Pharmaceutics, 2025)
Structures can show the parent of a compound that is named as a salt. Blank lines part the entries; values can stand above or below the compound they belong to.

Legend:
[1] = Binding in human liver S9 fraction by equilibrium dialysis (RED); type: in vitro ADME; conditions: human, liver S9 fraction, pH 7.4, human liver S9, 1 mg/mL protein, equilibrium dialysis 37 °C 4 h, mean ± SD (n = 3); read-out: fu (%) in liver S9 fractions
Procedure: (§1) The nonspecific binding of KB-1517 and KB-1518 in human and mouse plasma and liver S9 fractions was determined by equilibrium dialysis using a Rapid Equilibrium Device (RED) system (Thermo Fisher Scientific, Seoul, Republic of Korea).
(§2) Working solutions (200 μM for plasma, 60 μM for S9 fractions) were prepared in 40% aqueous acetonitrile. These were diluted 20-fold into either plasma or S9 incubation buffer (1 mg/mL protein, 200 mM Tris-HCl, 2 mM MgCl2, pH 7.4) to create the final dosing solutions.
(§3) For the dialysis, RED inserts (8 kDa MWCO) were used. Into each device, 200 μL of a dosing solution was added to the sample chamber, and 350 μL of PBS was added to the buffer chamber. The plate was sealed and incubated at 37 °C for 4 h on an orbital shaker (100 rpm) to allow the system to reach equilibrium.
(§4) Following incubation, 50 μL aliquots were taken from both chambers. To ensure analytical consistency, the samples were matrix-matched: the sample chamber aliquot was mixed with 50 μL of PBS, and the buffer chamber aliquot was mixed with 50 μL of the corresponding blank matrix (plasma or S9 incubation buffer). Proteins were then precipitated by adding 200 μL of ice-cold acetonitrile containing diclofenac (1 μg/mL) as IS. The samples were subsequently vortexed, sonicated for 5 min, and centrifuged at 4000× g for 20 min. Finally, a 100 μL aliquot of the resulting supernatant was diluted with 100 μL of HPLC-grade water in a 96-well plate for subsequent LC-MS/MS analysis.

[2] = Binding in mouse liver S9 fraction by equilibrium dialysis (RED); type: in vitro ADME; conditions: ICR, mouse, liver S9 fraction, pH 7.4, mouse liver S9, 1 mg/mL protein, equilibrium dialysis 37 °C 4 h, mean ± SD (n = 3); read-out: fu (%) in liver S9 fractions
Procedure: as §1, §2, §3, §4

[3] = Metabolite identification in liver S9 incubations; type: in vitro ADME; conditions: S9 1 mg protein/mL, 60 min, 37 °C, H: human, M: mouse
Procedure: The incubation mixture (final volume 200 µL) contained: 125 µL of deionized water, 40 µL of Tris mix buffer, 10 µL of 20 mg protein/mL S9 fraction (final concentration 1 mg protein/mL), and 5 µL of the test compound working solution (final concentration 3 µM). The final concentrations of DMSO and acetonitrile were 0.03% and 1%, respectively. The mixture was pre-incubated at 37 °C for 5 min in a shaking water bath. The reaction was initiated by adding 20 µL of the combined cofactor solution (final concentrations: 1 mM NADPH, 0.5 mM UDPGA, 0.1 mM PAPS, 2.5 mM GSH). Control incubations were performed without the cofactor mixture (replaced with buffer) and at 0 min (quenched immediately after adding cofactors). Incubations were carried out at 37 °C for 0, 15, 30, and 60 min (for stability) or 60 min (for metabolite ID). Reactions were terminated by adding 200 µL of ice-cold acetonitrile containing IS (diclofenac).
Metabolite identification was performed using samples generated from the in vitro liver S9 incubations (final substrate concentration 20 µM, 60 min incubation) and plasma samples from the in vivo IP administration study. Samples were analyzed using an Agilent 6530 Q-TOF LC-MS/MS system (Agilent Technologies Korea Ltd., Seoul, Republic of Korea). Data processing and metabolite identification were performed using Agilent MassHunter Metabolite ID software (ver. B.04.00), searching for expected biotransformations (e.g., oxidation, demethylation, glucuronidation, sulfation, GSH conjugation) and comparing MS/MS fragmentation patterns of metabolites with the parent drug.
Qualitative analysis for metabolite identification was performed using the same LC system coupled to an Agilent 6530 Q-TOF mass spectrometer system (Agilent Technologies Korea Ltd., Seoul, Republic of Korea) with a dual AJS ESI source operating in positive ion mode. The chromatographic conditions were identical to those used for quantitative analysis.
The ion source parameters for the mass spectrometer were set as follows: gas temperature 325 °C, gas flow 12 L/min, nebulizer pressure 35 psi, sheath gas temperature 350 °C, and sheath gas flow 10 L/min. Data were acquired in MS scan mode (m/z 100–1000) and targeted MS/MS or Auto MS/MS mode. Data acquisition and processing were performed using Agilent MassHunter Qualitative Analysis (ver. B.05.00) and Metabolite ID software (ver. B.04.00).
To elucidate the metabolic pathways, metabolite identification studies were conducted using in vitro liver S9 fractions incubations (20 µM substrate) and in vivo plasma samples from mice administered an IP dose (200 µg/mouse). Metabolites were identified based on accurate mass measurements, isotopic patterns, and MS/MS fragmentation patterns compared to the parent compound using LC-Q-TOF MS/MS system (Agilent Technologies Ltd., Seoul, Republic of Korea).

[4] = Plasma protein binding by equilibrium dialysis (RED), mouse plasma; type: in vitro ADME; conditions: male, ICR, equilibrium dialysis 37 °C 4 h, mean ± SD (n = 3), read-out: fu (%) plasma protein binding
Procedure: as §1, §2, §3, §4

[5] = Plasma protein binding by equilibrium dialysis (RED), human plasma; type: in vitro ADME; conditions: equilibrium dialysis 37 °C 4 h, mean ± SD (n = 3), read-out: fu (%) plasma protein binding
Procedure: as §1, §2, §3, §4

[6] = system: flavin-containing monooxygenase (FMO) in HLM; assay: FMO involvement: metabolic stability in control vs heat-inactivated human liver microsomes; type: in vitro ADME; conditions: pre-incubated 45 °C for 5 min vs control, 60 min incubation, NADPH
Procedure: (§5) To determine the potential involvement of flavin-containing monooxygenase (FMO), a parallel assay was conducted with HLM and MLM [31]. To selectively inactivate FMO, microsomes (20 mg protein/mL) were pre-incubated at 45 °C for 5 min. Non-inactivated microsomes served as the control. Subsequently, metabolic incubations were performed with both control and heat-inactivated microsomes at 37 °C for 60 min. The incubation procedure was identical to that described above for the S9 fractions, with the exception that NADPH was used as the sole cofactor.

[7] = system: flavin-containing monooxygenase (FMO) in MLM; assay: FMO involvement: metabolic stability in control vs heat-inactivated mouse liver microsomes; type: in vitro ADME, male ICR mouse; conditions: pre-incubated 45 °C for 5 min vs control, 60 min incubation, NADPH
Procedure: as §5

fraction unbound at 4 h, 3 µM [1]: 0.946 ± 0.026
fraction unbound at 4 h, 3 µM [2]: 0.937 ± 0.011
Structure (SMILES): Cc1cc(=O)n(-c2ccccc2)n1C [Antipyrine, antipyrine, reference compound]

fraction unbound at 4 h, 3 µM [1]: 0.028 ± 0.006
fraction unbound at 4 h, 3 µM [2]: 0.019 ± 0.002
Structure (SMILES): CCC(C)n1ncn(-c2ccc(N3CCN(c4ccc(OCC5COC(Cn6cncn6)(c6ccc(Cl)cc6Cl)O5)cc4)CC3)cc2)c1=O (stereo not drawn) [Itraconazole, itraconazole, reference compound]

Species in whose liver S9 the metabolite was detected ([3]; KB-1517 20 µM): H, M
Structure (SMILES): CNCCn1c(=O)c2nc(-c3ccc(C(F)(F)F)cc3)oc2c2ccccc21 [KB-1517 M1]

Species in whose liver S9 the metabolite was detected ([3]; KB-1517 20 µM): H, M
Structure (SMILES): C[N+](C)([O-])CCn1c(=O)c2nc(-c3ccc(C(F)(F)F)cc3)oc2c2ccccc21 [KB-1517 M2]

Species in whose liver S9 the metabolite was detected ([3]; KB-1518 20 µM): H, M
Structure (SMILES): CN(CCO)c1nc2ccccc2c2oc(-c3ccc(C(F)(F)F)cc3)nc12 [KB-1518 M1]

Species in whose liver S9 the metabolite was detected ([3]; KB-1518 20 µM): H, M
Structure (SMILES): OCCNc1nc2ccccc2c2oc(-c3ccc(C(F)(F)F)cc3)nc12 [KB-1518 M2]

Species in whose liver S9 the metabolite was detected ([3]; KB-1518 20 µM): H, M
Structure (SMILES): C[N+](C)([O-])CCOc1nc2ccccc2c2oc(-c3ccc(C(F)(F)F)cc3)nc12 [KB-1518 M3]

fraction unbound at 4 h, 10 µM [4]: 0.247 ± 0.005
fraction unbound at 4 h, 10 µM [5]: 0.262 ± 0.026
Structure (SMILES): CC(C)NCC(O)COc1cccc2ccccc12 (stereo not drawn) [Propranolol, propranolol]

fraction unbound at 4 h, 10 µM [4]: 0.888 ± 0.054
fraction unbound at 4 h, 10 µM [5]: 0.85 ± 0.006
Structure (SMILES): CNC(=C[N+](=O)[O-])NCCSCc1ccc(CN(C)C)o1 [Ranitidine, ranitidine]

Effect of heat inactivation (FMO) on metabolism [6]: significantly inhibited the metabolism
Effect of heat inactivation (FMO) on metabolism [7]: significantly inhibited the metabolism
Structure (SMILES): CN(C)CCCOc1nn(Cc2ccccc2)c2ccccc12 [benzydamine, Benzydamine hydrochloride]
